What was measured:
[1] = biological target: acetylcholinesterase; settings: cited from earlier work; for IC50: read-out: anti-acetylcholinesterase activity IC50
[2] = biological target: T1, Acetylcholinesterase (AChE) (Homo sapiens, UniProt P22303); experiment: biochemical; settings: Ellman method, pH 8.0, 37 °C, absorbance at 405 nm; read-out: acetylcholinesterase inhibitory activity IC50
T1 construct: purchased Sigma-Aldrich
Experimental: Acetylcholinesterase (AChE, Sigma-Aldrich, Saint Louis, MO, USA, 0.1 U/mL), acetylthiocholine iodide, dithiobisnitrobenzoic acid (DTNB), and tacrine were bought from Sigma-Aldrich.
The AChE inhibitory activity was evaluated based on the protocol developed by Ellman et al. [33]. The enzymatic reactions were conducted in 96-well microplates. The following were added to each well: 110 μL phosphate buffer (pH 8.0), 40 μL AChE, and the tested compounds (dissolved in 10 μL DMSO). The microplates were then incubated in 37 °C for 20 min. […] Then, the absorbance at 405 nm was detected after 1 h. Seven different concentrations and three replications per concentration for each compound were tested.

[3] = test system: murine monocytic RAW264.7 macrophage cells; experiment: Anti-inflammatory assay: NO production by the Griess method; assay type: cell-based; settings: LPS (0.5 µg/mL)-stimulated RAW264.7 cells, NO content
Experimental: The content of NO was determined by the Griess method. Briefly, the murine monocytic RAW264.7 macrophage cells in logarithmic growth phase were diluted to 1 × 10^5 cells/mL. Then, 100 µL of cell dilution was seeded into the 96-well plates and incubated overnight at 37 °C in a humid atmosphere with 5% CO2 for 24 h. The test compound and lipopolysaccharides (LPS) (Sigma) (0.5 µg/mL) were then added to each well and incubated for another 18 h. Then, 50 µL of cells culture supernatant was taken, 50 µL of the Griess reagent (reagent A and reagent B, Sigma) was added in triplicate, and NO production was evaluated in each well. After 5 min of incubation, the absorbances of samples were measured at 570 nm with Envision multilabel plate reader, and the corresponding contents were calculated by curve calibration.

T1 sequence (P22303 32-614, species assumed): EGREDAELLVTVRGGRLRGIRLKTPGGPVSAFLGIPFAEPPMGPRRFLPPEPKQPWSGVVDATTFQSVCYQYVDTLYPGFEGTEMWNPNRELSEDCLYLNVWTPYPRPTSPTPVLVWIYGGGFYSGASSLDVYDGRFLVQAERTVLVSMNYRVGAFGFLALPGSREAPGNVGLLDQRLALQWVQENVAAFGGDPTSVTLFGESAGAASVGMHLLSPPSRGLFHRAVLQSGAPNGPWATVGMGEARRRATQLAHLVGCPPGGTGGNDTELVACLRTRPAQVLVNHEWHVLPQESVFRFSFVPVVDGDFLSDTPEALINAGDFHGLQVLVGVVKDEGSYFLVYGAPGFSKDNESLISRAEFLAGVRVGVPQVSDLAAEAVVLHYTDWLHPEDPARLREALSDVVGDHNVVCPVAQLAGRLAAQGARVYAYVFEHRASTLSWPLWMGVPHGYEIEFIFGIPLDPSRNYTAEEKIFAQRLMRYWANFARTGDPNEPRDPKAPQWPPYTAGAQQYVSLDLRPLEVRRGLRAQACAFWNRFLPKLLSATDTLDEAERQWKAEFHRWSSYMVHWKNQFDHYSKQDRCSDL

Row | SMILES | IC50 [1] [µM] | bioactivity in a panel of biological activity assays, including anti-inflammatory activity [3] | anti-acetylcholinesterase activity IC50 [1] [µg/mL] | also measured
1 | COC(C)(C)C(O)CCC(C)=CCOc1c2ccoc2cc2oc(=O)ccc12 (stereo not shown) [6′-hydroxy-7′-methoxybergamottin] | 13.2 |  |  | 
2 | CCCCC[C@@H]1Cc2cc(O)c(C(=O)O)c(O)c2[C@@H](c2[nH]c3ccccc3c2CC(=O)OC)O1 [Compound 1, Penisimplicin A] |  | devoid of any bioactivities |  | IC50 [2]: 6.35 µM
3 | CCCCCC(O)Cc1cc(O)c(C(=O)O)c(O)c1C1CCC2C(=O)NC(CC(C)C)C(=O)N21 (stereo not shown) [Compound 2, Penisimplicin B] |  | devoid of any bioactivities |  | 
4 | C=C1CCC[C@@]2(C)C[C@@]3([C@@]45C[C@]6(C)CCCC(=C)[C@H]6CC4=C(C)C(=O)O5)OC(=O)C(C)=C3C[C@H]12 [biatractylolide] |  |  | 6.5458 | 
5 | COC1=CC(=O)c2c(O)c3c(c(-c4c(OC)cc5c(c4O)C(=O)c4c(O)cc(C)cc4C5=O)c2C1=O)C[C@@H](C)O[C@H]3C [floribundiquinone B] |  |  | 5.95 | 
6 | CC(C)=CCOc1c2ccoc2cc2oc(=O)ccc12 [isoimperatorin] | 23.1 |  |  | 

Source: paper PMC10856265, “Penisimplicins A and B: Novel Polyketide–Peptide Hybrid Alkaloids from the Fungus Penicillium simplicissimum JXCC5” (Molecules, 2024)
